Test results reported in US20160310571A1, “Pharmaceutical Composition Comprising Erythropoietin and Ceftriaxone and A Method for Treating Parkinson's Disease Dementia” (Chung Shan Medical University, priority 2015, published 2016).

Assays:
Format in all cases: in vivo, rat
[1] = test system: DAergic neuron in the SNc; assay: Histopathological analysis: tyrosine hydroxylase staining of SNc sections; settings: 14th day, vs group A1 (saline)
Protocol: (§1) Wistar male rats (12 week-old, weight ˜400 grams) purchased from the National Laboratory Animal Center (R.O.C.) are used. The rats are housed in an animal room with constant temperature of 24±1° C., where is kept on a 12-hours light and 12-hours dark cycle. The rats are housed and kept on free diet and water.
(§2) On the 1st day, the rats are anesthetized, followed by bilaterally MPTP (1-methyl-4-phenyl-1,2,3,6-tetrahydropyridine hydrochloride)-infusion into the substantia nigra pars compacta (SNc). The rats with cognitive impairments on working memory and object recognition are used as the PDD rats (Ho et al., Behav Brain Res 268: 177-184, 2014).
(§3) Starting on the 1st day, referring to TABLE 1, saline (group Al), erythropoietin (groups A2 & A3) and ceftriaxone (groups A4 & A5) are administrated to the PDD rats in the corresponding groups. Erythropoietin and ceftriaxone are sequentially administrated to the PDD rats of group A6 with a time interval of 30 minutes. Saline is also used to be administrated to the normal rats of group A0. Moreover, saline, erythropoietin and ceftriaxone are administrated for 14 days (from the 1st day to the 14th day).
(§4) On the 14th day, the rats of groups A0-A6 are sacrificed and the coronal sections are collected. The sections with SNc are used for tyrosine hydroxylase staining, while the sections with hippocampal CA1 area are used for Nissl staining. […]

PDD rats [2] = assay: Object recognition test in MPTP-induced PDD rats; settings: 13th day
Protocol: as §1, §2
(§5) Starting on the 1st day, referring to TABLE 1, saline (group Al), erythropoietin (groups A2 & A3) and ceftriaxone (groups A4 & A5) are administrated to the PDD rats in the corresponding groups. […]
Recognition ability of the rats of groups A0-A6 is measured using the object recognition test (Ho et al., Behav Brain Res 268: 177-184, 2014). […]
On the 13th day, the rat under test “M” is first placed in the open box shown as FIG. 4a, and the time spent exploring the object O1 (TO1) and the total time spent exploring the objects O1, O2 & O3 (TO1+O2+O3) are recorded, respectively. The percentage of the exploration time spent on the object O1 is calculated as (TO1/TO1+O2+O3)*100%. […]

PDD rats [3] = assay: T-maze test (working memory) in MPTP-induced PDD rats; settings: test on 10th day, vs chance (50%)
Protocol: as §1, §2
as §5, with “groups. Erythropoietin and ceftriaxone are sequentially administrated to the PDD rats of group A6 with a time interval of 30 minutes.” for “groups.”
Working memory of the rats of groups A0-A6 is assessed using the T-maze test (Ho et al., Behav Brain Res 268: 177-184, 2014). […]
On the 10th day, a test session consisting 3 rounds, each of which is composed of a “forced run” and two “choice run”, is carried out. The number of the rewards “R” that the rat under test “M” get (% of correct response) in the 6 choice runs is recorded.

[4] = test system: pyramidal neuron in the hippocampal CA1 area; assay: Histopathological analysis: Nissl staining of hippocampal CA1 sections; settings: 14th day, vs group A1 (saline), p<0.001
Protocol: as §1, §2, §3, §4

[5] = group A4, ceftriaxone 5 mg/kg/day, p<0.05

Compound: CO/N=C(\C(=O)N[C@@H]1C(=O)N2C(C(=O)O)=C(CSc3nc(=O)c(=O)[nH]n3C)CS[C@H]12)c1csc(N)n1 [ceftriaxone]
- density of DAergic neuron in the SNc [1, 5]: recovery of DAergic neuron density in the SNc
- density of DAergic neuron in the SNc ([1]; group A5, ceftriaxone 10 mg/kg/day, p<0.01): recovery of DAergic neuron density in the SNc
- percentage of time exploring novel object O4 vs object O1 (recognition ability) (PDD rats [2]; group A4, ceftriaxone 5 mg/kg/day, p<0.001): can recognize the novel object O4 in the environment
- percentage of time exploring novel object O4 vs object O1 (recognition ability) (PDD rats [2]; group A5, ceftriaxone 10 mg/kg/day, p<0.05): can recognize the novel object O4 in the environment
- percentage of correct response in T-maze test (working memory) (PDD rats [3]; [5]): slightly treatment on the cognitive impairment on working memory
- percentage of correct response in T-maze test (working memory) (PDD rats [3]; group A5, ceftriaxone 10 mg/kg/day, p<0.001): significant treatment on the cognitive impairment on working memory
- percentage of the CA1 area occupied by the pyramidal neuron ([4]; group A4, ceftriaxone 5 mg/kg/day): recovery of pyramidal neuron density in the CA1 area
- percentage of the CA1 area occupied by the pyramidal neuron ([4]; group A5, ceftriaxone 10 mg/kg/day): recovery of pyramidal neuron density in the CA1 area
